Holding throughout (assay type): cell-based
In one assay the test system is L 929. As to the kind of experiment: In vitro colorimetric cell death assay (MTT). The conditions noted are these: Mus musculus, L929; L 929, MTT, 48 hours; read-out: IC 50. On the procedure: (§1) It's an in vitro colorimetric assay for assessing cell viability where the cells are grown in Two-dimensional surface.
(§2) An exemplary procedure for the assay follows. Cancer cells and normal cells were plated in a 96 well plate as per predetermined plating efficiency. The plate was incubated for 24 hours in a 5% CO2 atmosphere at 37 degrees Celsius, a range of concentrations of the compounds I-1, I-2 and I-3 as well as cisplatin (known chemotherapeutic agents) were added to the separate wells, the plate was incubated further for 48 hours in a 5% CO2 atmosphere, the plate was centrifuged twice at 3000 rpm for 3 minutes, the supernatant fluid was discarded, 100 uL of 0.5 mg/mL MTT solution was added and the plate was incubated for 4 hours in a 5% CO2 atmosphere at 37 degrees Celsius. The plate was then centrifuged twice at 3000 rpm for 3 minutes, supernatant, was aspirated very carefully, 200 uL DMSO was added to each well to solubilize MTT crystals and mixed well by shaking the plate, the plate was incubated for 10 minutes in a 5% CO2 atmosphere at 37 degrees Celsius, the plate placed on the shaker of an ELISA plate reader and the absorbance at 570 nm was measured, then the percentage of viable cells remaining was calculated by first subtracting the background absorbance then comparing to the absorbance of a non-drug-treated cell sample, and the results were plotted on a graph to determine the IC50 for the compounds and cisplatin.

Assay [1] deals with MCF-7. The assay can be described thus: In vitro colorimetric cell death assay (MTT). The conditions noted are these: Homo sapiens, MCF7; MCF-7, MTT, 48 hours. The method, then:
as §1, §2

For assay [2], the system named is DU145. The assay can be described thus: In vitro colorimetric cell death assay (MTT). The conditions noted are these: Homo sapiens, DU-145; DU145, MTT, 48 hours; read-out: IC 50. On the procedure: as §1, §2
Assay [3] concerns MCF10A (normal breast cell line). As to the kind of experiment: In vitro colorimetric cell death assay (MTT). The conditions noted are these: 48 hours. The method, then: as §1, §2
Assay [4] has as its system MDAMB231. As to the kind of experiment: In vitro colorimetric cell death assay (MTT). The following applies: Homo sapiens, MDA-MB-231, 48 hours. The method, then:
as §1, §2

A further assay concerns LNCaP. The assay can be described thus: In vitro soft agar colony forming growth assay. The following applies: Homo sapiens, 168 h, one week. On the procedure: (§3) The Soft Agar Assay for Colony Formation is considered the most stringent assay for detecting malignant transformation of cells. In this assay the cells are cultured in medium with low percentage of agar.
(§4) An exemplary procedure for the assay follows.

The subject of a further assay is T47D. As to the kind of experiment: In vitro soft agar colony forming growth assay. The following applies: Homo sapiens, 168 h, one week. On the procedure:
as §3, §4

In another assay the test system is PC3. As to the kind of experiment: In vitro soft agar colony forming growth assay. The following applies: Homo sapiens, PC-3, 168 h, one week. On the procedure: as §3, §4
The subject of assay [5] is MCF-7. The assay can be described thus: In vitro soft agar colony forming growth assay. The following applies: Homo sapiens, MCF7, 168 h; MCF-7, soft agar, one week. On the procedure: as §3, §4
The test system of assay [6] is DU145. The assay can be described thus: In vitro soft agar colony forming growth assay. The conditions noted are these: Homo sapiens, DU-145, 168 h, one week. The method, then: as §3, §4
The test system of assay [7] is MDAMB231. As to the kind of experiment: In vitro soft agar colony forming growth assay. The conditions noted are these: Homo sapiens, MDA-MB-231, 168 h; MDAMB231, soft agar, one week; read-out: IC 50. The method, then: as §3, §4

Each structure is given as a SMILES string.

As for `COc1cc2c(OC3OCC(OC)C(OC)C3O)c3c(c(-c4ccc5c(c4)OCO5)c2cc1OC)C(=O)OC3` (centres unmarked) [I-2], the IC50 in the assay with L 929 is 1380 nM; in the assay on MCF-7 [1], 954 nM; in the assay on DU145 [2], 2450 nM; in assay [3], “No Activity”; with MDAMB231 [4] it was 330 nM; with LNCaP, 700 nM. Moreover, the IC50 is 2390 nM in the assay on T47D; 260 nM in the assay on PC3; 620 nM in the assay with MCF-7 [5]; 3160 nM with DU145 [6]; 3630 nM in the assay on MDAMB231 [7].
